From ChEMBL document CHEMBL3994662, “In vivo instability of platensimycin and platencin: Synthesis and biological evaluation of urea- and carbamate-platensimycin” (Bioorg Med Chem, 2017)
In brackets after ≈: the same amount, converted by molar mass.

How the values were obtained:
[1] = Ratio of drug level in C57Bl/6 mouse muscle to plasma at 10 mg/kg, iv administered as single dose measured after 60 mins by LC-MS/MS analysis; format: ADME, organism-based, Muscle tissue/plasma
[2] = Drug uptake in C57Bl/6 mouse muscle at 10 mg/kg, iv administered as single dose measured after 60 mins by LC-MS/MS analysis; format: ADME, organism-based, Muscle tissue; conditions: in vivo, 1 h
Kidney [3] = assay: In vivo stability in C57Bl/6 mouse kidney assessed as compound hydrolysis at 10 mg/kg, iv administered as single dose measured after 60 mins by LC-MS/MS analysis; format: ADME, organism-based; conditions: 1 h
[4] = Elimination half life in C57Bl/6 mouse at 10 mg/kg, po administered as single dose via gavage by LC-MS/MS analysis; format: ADME, organism-based; conditions: in vivo, read-out: beta t1/2 (converted)
[5] = Drug metabolism in mouse hepatic microsomes assessed as glucuronidation of carboxylic acid at 1 uM up to 60 mins in absence of NADPH by LC-MS/MS analysis; format: ADME, Liver, Microsome; conditions: 1 h
Mus musculus [6] = assay: AUC (0 to 8 hrs) in C57Bl/6 mouse at 10 mg/kg, po administered as single dose via gavage by LC-MS/MS analysis; format: ADME, organism-based; set-up: time < 8 hr, dose 10 mg/kg, route oral; conditions: in vivo
[7] = In vivo stability in C57Bl/6 mouse adipose tissue assessed as compound hydrolysis at 10 mg/kg, iv administered as single dose measured after 60 mins by LC-MS/MS analysis; format: ADME, organism-based; conditions: 1 h
Brain [8] = assay: In vivo stability in C57Bl/6 mouse brain assessed as compound hydrolysis at 10 mg/kg, iv administered as single dose measured after 60 mins by LC-MS/MS analysis; format: ADME, organism-based; conditions: 1 h
[9] = Ratio of drug level in C57Bl/6 mouse adipose tissue to plasma at 10 mg/kg, iv administered as single dose measured after 60 mins by LC-MS/MS analysis; format: ADME, organism-based
Liver [10] = assay: In vivo stability in C57Bl/6 mouse liver assessed as compound hydrolysis at 10 mg/kg, iv administered as single dose measured after 60 mins by LC-MS/MS analysis; format: ADME, organism-based; conditions: 1 h
[11] = Intrinsic clearance in mouse hepatic microsomes at 1 uM up to 60 mins by LC-MS/MS analysis; format: ADME, Microsome; conditions: liver microsomes, read-out: CLH
Lung [12] = assay: Drug uptake in C57Bl/6 mouse lung at 10 mg/kg, iv administered as single dose measured after 60 mins by LC-MS/MS analysis; format: ADME, organism-based; conditions: in vivo, 1 h
[13] = Elimination half life in C57Bl/6 mouse at 3 mg/kg, iv administered as single dose by LC-MS/MS analysis; format: ADME, organism-based; conditions: in vivo, read-out: beta t1/2 (converted)
Kidney [14] = assay: Drug uptake in C57Bl/6 mouse kidney at 10 mg/kg, iv administered as single dose measured after 60 mins by LC-MS/MS analysis; format: ADME, organism-based; conditions: in vivo, 1 h
[15] = Cmax in C57Bl/6 mouse at 10 mg/kg, po administered as single dose via gavage by LC-MS/MS analysis; format: ADME, organism-based; set-up: dose 10 mg/kg, route oral; conditions: in vivo
[16] = Drug metabolism in mouse hepatic microsomes assessed as amide hydrolysis-mediated platensic acid formation at 1 uM up to 60 mins in absence of NADPH by LC-MS/MS analysis; format: ADME, Liver, Microsome; conditions: 1 h
[17] = Ratio of drug level in C57Bl/6 mouse kidney to plasma at 10 mg/kg, iv administered as single dose measured after 60 mins by LC-MS/MS analysis; format: ADME, organism-based
[18] = Drug metabolism in mouse hepatic microsomes assessed as hydroxylation at 1 uM up to 60 mins in absence of NADPH by LC-MS/MS analysis; format: ADME, Liver, Microsome; conditions: 1 h
[19] = In vivo stability in C57Bl/6 mouse urine assessed as compound hydrolysis by measuring platensic acid level at 10 mg/kg, iv administered as single dose measured after 60 mins by LC-MS/MS analysis relative to platensimycin; format: ADME, organism-based; conditions: 1 h
Staphylococcus aureus = assay: Antibacterial activity against Staphylococcus aureus ATCC 25923 after 18 hrs by broth dilution method; format: functional; conditions: ATCC 25923, 18 h
[20] = Apparent permeability by PAMPA; format: physicochemical
[21] = Ratio of drug level in C57Bl/6 mouse urine to plasma at 10 mg/kg, iv administered as single dose measured after 60 mins by LC-MS/MS analysis; format: ADME, organism-based; conditions: in vivo, 1 h
Kidney [22] = assay: In vivo stability in C57Bl/6 mouse kidney assessed as compound hydrolysis by measuring platensic acid level at 10 mg/kg, iv administered as single dose measured after 60 mins by LC-MS/MS analysis relative to platensimycin; format: ADME, organism-based; conditions: 1 h
[23] = Ratio of drug level in C57Bl/6 mouse liver to plasma at 10 mg/kg, iv administered as single dose measured after 60 mins by LC-MS/MS analysis; format: ADME, organism-based
[24] = Drug level in C57Bl/6 mouse urine at 10 mg/kg, iv administered as single dose measured after 60 mins by LC-MS/MS analysis; format: ADME, organism-based; conditions: mouse, in vivo, 1 h
[25] = Cmax in C57Bl/6 mouse at 3 mg/kg, iv administered as single dose by LC-MS/MS analysis; format: ADME, organism-based; set-up: dose 3 mg/kg, route intravenous; conditions: in vivo
Micrococcus luteus = assay: Antibacterial activity against Micrococcus luteus ATCC 9431 after 18 hrs by broth dilution method; format: functional; conditions: ATCC 9431, 18 h
Plasma [26] = assay: In vivo stability in C57Bl/6 mouse plasma assessed as compound hydrolysis at 10 mg/kg, iv administered as single dose measured after 60 mins by LC-MS/MS analysis; format: ADME, organism-based; conditions: 1 h
[27] = Observed clearance in C57Bl/6 mouse at 3 mg/kg, iv administered as single dose by LC-MS/MS analysis; format: ADME, organism-based; conditions: in vivo
Plasma [28] = assay: Drug uptake in C57Bl/6 mouse plasma at 10 mg/kg, iv administered as single dose measured after 60 mins by LC-MS/MS analysis; format: ADME, organism-based; conditions: in vivo, 1 h
[29] = Drug uptake in C57Bl/6 mouse adipose tissue at 10 mg/kg, iv administered as single dose measured after 60 mins by LC-MS/MS analysis; format: ADME, organism-based; conditions: in vivo, 1 h
Mus musculus [30] = assay: AUC (0 to 8 hrs) in C57Bl/6 mouse at 3 mg/kg, iv administered as single dose by LC-MS/MS analysis; format: ADME, organism-based; set-up: dose 3 mg/kg, time < 8 hr, route intravenous; conditions: in vivo
[31] = In vivo stability in C57Bl/6 mouse muscle assessed as compound hydrolysis at 10 mg/kg, iv administered as single dose measured after 60 mins by LC-MS/MS analysis; format: ADME, organism-based, Muscle tissue; conditions: 1 h
Plasma [32] = assay: In vivo stability in C57Bl/6 mouse plasma assessed as compound hydrolysis by measuring platensic acid level at 10 mg/kg, iv administered as single dose measured after 60 mins by LC-MS/MS analysis relative to platensimycin; format: ADME, organism-based; conditions: 1 h
[33] = Volume of distribution in C57Bl/6 mouse at 3 mg/kg, iv administered as single dose by LC-MS/MS analysis; format: ADME, organism-based; conditions: in vivo
Liver [34] = assay: Drug uptake in C57Bl/6 mouse liver at 10 mg/kg, iv administered as single dose measured after 60 mins by LC-MS/MS analysis; format: ADME, organism-based; conditions: in vivo, 1 h
Liver [35] = assay: In vivo stability in C57Bl/6 mouse liver assessed as compound hydrolysis by measuring platensic acid level at 10 mg/kg, iv administered as single dose measured after 60 mins by LC-MS/MS analysis relative to platensimycin; format: ADME, organism-based; conditions: 1 h
[36] = Plasma concentration in C57Bl/6 mouse at 3 mg/kg, iv administered as single dose measured after 2 hrs by LC-MS/MS analysis; format: ADME, organism-based
[37] = In vivo stability in C57Bl/6 mouse urine assessed as compound hydrolysis at 10 mg/kg, iv administered as single dose measured after 60 mins by LC-MS/MS analysis; format: ADME, organism-based; conditions: 1 h
Lung [38] = assay: In vivo stability in C57Bl/6 mouse lung assessed as compound hydrolysis at 10 mg/kg, iv administered as single dose measured after 60 mins by LC-MS/MS analysis; format: ADME, organism-based; conditions: 1 h
Brain [39] = assay: Drug uptake in C57Bl/6 mouse brain at 10 mg/kg, iv administered as single dose measured after 60 mins by LC-MS/MS analysis; format: ADME, organism-based; conditions: in vivo, 1 h
[40] = Ratio of drug level in C57Bl/6 mouse lung to plasma at 10 mg/kg, iv administered as single dose measured after 60 mins by LC-MS/MS analysis; format: ADME, organism-based
[41] = Oral bioavailability in C57Bl/6 mouse at 10 mg/kg administered as single dose via gavage by LC-MS/MS analysis; format: ADME, organism-based; conditions: in vivo
[42] = Drug metabolism in mouse hepatic microsomes assessed as amide hydrolysis-mediated platensic acid formation at 1 uM up to 60 mins in presence of NADPH by LC-MS/MS analysis; format: ADME, Liver, Microsome; conditions: 1 h

C[C@]12C[C@@]34C=CC(=O)[C@@](C)(CCC(=O)Nc5c(O)ccc(C(=O)O)c5O)[C@@H]3[C@H](C[C@@H]1C4)O2
Kp at 1 h [1]: 0.1
Drug uptake [2]: Active
Stability (Kidney [3]): Unstable
half-life [4]: 3.2 h
Drug metabolism [5]: Metabolite_Detected
AUC (Mus musculus [6]): 1.5 µM·h
Stability [7]: Stable
Stability (Brain [8]): Stable
Kp at 1 h [9]: 0.1
Stability (Liver [10]): Unstable
microsomal CLint at 1 µM [11]: 13.6 µL/min/mg
Drug uptake (Lung [12]): Active
half-life [13]: 3.5 h
Drug uptake (Kidney [14]): Active
Cmax [15]: 2100 nM
Drug metabolism [16]: Metabolite_Detected
Kp at 1 h [17]: 0.5
Drug metabolism [18]: Metabolite_Detected
fold change (FC) [19]: 0.0005
MIC (Staphylococcus aureus): 0.5 µg/mL (≈ 1.13 µM)
Papp [20]: 1.3 ×10⁻⁷ cm/s
Ratio [21]: 3790
fold change (FC) (Kidney [22]): 0.2
Kp at 1 h [23]: 6.2
Drug uptake [24]: Active
Cmax [25]: 20000 nM
MIC (Micrococcus luteus): 0.5 µg/mL (≈ 1.13 µM)
Stability (Plasma [26]): Unstable
clearance [27]: 16 mL/min/kg
Drug uptake (Plasma [28]): Active
Drug uptake [29]: Active
AUC (Mus musculus [30]): 10 µM·h
Stability [31]: Stable
fold change (FC) (Plasma [32]): 0.1
Vd [33]: 0.9 L/kg
Drug uptake (Liver [34]): Active
fold change (FC) (Liver [35]): 0.04
concentration at 2 h [36]: 10 nM
Stability [37]: Unstable
Stability (Lung [38]): Stable
Drug uptake (Brain [39]): Not Active
Kp at 1 h [40]: 0.5
bioavailability [41]: 4.4%
Drug metabolism [42]: Metabolite_Detected
